In patent publication US8163805B2, “Small molecule antagonists of Bcl-2 family proteins” (The Regents of the University of Michigan, priority 2001, dated 2012):
pIC50, pKd: −log10 of the molar value. Read-outs that look alike come from different tables or passages of the source.

Legend:
[1] = tested on: human breast cancer MDA-MB-231 (2LMP) xenograft
MDA-MB-231 cells = experiment: 5 day MTT cell growth assay, MDA-MB-231; assay type: cell-based, human; conditions: Homo sapiens, MDA-MB-231, 120 h, read-out: IC50, inhibition of MDA-MB-231 cell growth
Protocol: For example, the ability of gossypol compounds to inhibit MDA-MB-231 cell growth was tested in a 5 day MTT assay.
Cells were seeded in 24 or 96-well-plates and gossypol compounds were prepared at 2-10 fold dilutions in suitable medium. Inhibition of cell viability was determined by treating the cells with the gossypol compounds for 24 hrs. […] Inhibition of cell growth was determined by treating cells with gossypol compounds for 3-6 days. […] In some embodiments, MTT assays are used to determine cell inhibition.
Absorbance at 540 nm is used to measure the amount of formazan product.

[2] = tested on: androgen-independent prostate PC-3 xenograft; experiment: PC-3 xenograft, (−)-gossypol and radiation (Example 20); assay type: in vivo, nude mice; conditions: Table 15; mice treated with gossypol and/or radiation
Protocol: In this experiment, 60 male 5 to 6 week old NCI athymic NCr-nu/nu nude mice were inoculated in each flank with an injection of about 5×10^6 PC-3 cells. The best 40 xenograft recipients were used. Tumors averaged about 70 mm^3. (−)-Gossypol compounds were first dissolved in ethanol and diluted with sterile water within 5 min to a final ethanol concentration of 10% prior to each administration. Irradiated test animals were restrained, placed under the X-ray head, and covered with lead shields to ensure that the tumor area was exposed to radiation. All oral administrations of (−)-gossypol and 10% alcohol were given by gavage.
The 40 best xenograft mice were divided into experimental groups as follows: radiation only (Groups 1 and 2), 2 Gy administered 5 times/week for 3 weeks, and daily oral administration of 10% alcohol (as vehicle control); radiation plus gossypol (Groups 3 and 4), 2 Gy administered 5 times a week for 3 weeks, and 10 mg/kg of (−)-gossypol administered orally 5 times/week for 4 weeks (8 mice each Group); gossypol only (Groups 5 and 6), 10 mg/kg (−)-gossypol administered orally every day for 4 weeks (8 mice each Group); vehicle control (Groups 7 and 8), daily oral administration of 10% alcohol (8 mice each Group as vehicle control); large tumor animals (combination of Groups 9-12), tumors allowed to reach 500 mm^3.
Other remaining tumors in this group appear pale yellowish and soft as compared with that in control group with hard solid and reddish appearance, indicating tumor blood supply was inhibited.

[3] = tested on: human breast cancer xenograft MDA-MB-231; conditions: for inhibition of tumor growth: three weeks, day 29
Protocol: The potential of gossypol compounds as anticancer therapeutics was further evaluated in MDA-231 xenograft mice. […] A control group of five mice received no gossypol. In the treated mice, gossypol was administered daily in two different oral doses, a 30 and a 90 mg/kg dose, for three weeks.
A group of 10 mice received an orally administered daily dose of 30 mg/kg gossypol starting at day 7 and lasting for 4 weeks. […] Each experimental group had 10 animals.
As a positive control, TAXOTERE was used at a dose of 7.5 mg/kg. Control group mice received either no treatment or vehicle alone. To achieve statistic significance, a minimum of 10 mice per group was used in the combination regimes.
For all tests, mice were randomized and then injected in the fat pad with 1-5×10^6 cells prepared in serum-free medium. The animals were measured and weighed twice each week during the treatment period, followed by twice a week measurements for an additional 4-6 weeks. A gross visual necropsy of each animal was performed at death or terminal sacrifice.

[4] = tested on: androgen independent prostate cancer PC-3 xenograft; experiment: PC-3 xenograft, (−)-gossypol alone and with docetaxel (Example 22); conditions: for weight loss: mice treated with gossypol
[5] = tested on: A549 non-small cell lung carcinoma xenograft; experiment: A549 non-small cell lung carcinoma xenograft, (−)-gossypol with paclitaxel; conditions: Table 13; mice treated with gossypol and/or Paclitaxel
PC-3 xenograft = conditions: Table 14; mice treated with gossypol and/or radiation
[6] = tested on: MDA-MB-231 breast cancer cells; experiment: Annexin-V flow cytometry apoptosis, MDA-MB-231; assay type: cell-based, human; conditions: 24 hours
Protocol: Further tests using Annexin-V flow cytometry (FACS) assays were conducted to more quantitatively assess the ability of gossypol to induce apoptosis in MDA-MB-231 breast cancer cells. […] It was observed that 5.0 μM of gossypol induced 59% of the MDA-MB-231 cells to undergo apoptosis. While the present invention is not limited to a particular mechanism(s), it is contemplated that induction of apoptosis by gossypol is dose-dependent. At administrations of 10.0 and 20.0 μM, respectively, gossypol induced 74% and 96% of cancer cells, again respectively, to undergo apoptosis. MDA-MB-231 cells overexpress Bcl-2 and Bcl-XL.
In still further embodiments, the present invention used cell level detection of apoptotic events by flow cytometry. Cells that had undergone apoptotic events were detected by flow cytometry using a FACSCAN instrument (Becton Dickinson, Franklin Lakes, N.J.) with 488-nm laser line and analyzed using CELL QUEST software (Becton Dickinson, Franklin Lakes, N.J.). Phosphatidylserine exposed on the outside of the cells (one of the major characteristics of apoptosis) was determined by TACSTM Annexin V-FITC Kit (Trevigen, Gaithersburg, Md.). Annexin V-FITC fluorescence is detected in FL-1, and propidium iodide was detected in FL-2. (Hail Jr., and R. Lotan, R. Cancer Epidemiol. Biomarkers Prev., 9:1293-1301 (2000)).
Apoptosis was further detected and quantified using Annexin-V-fluorescence assays. […] Cells were collected and washed with PBS and stained with Annexin-V-Fluorescein and propidium iodide (PI) following standard protocols. Stained cells were analyzed with a flow cytometer (Becton Dickinson) using 488 nm excitation and a 515 nm bandpass filter for fluorenscein detection, and a >600 nm filter for PI detection.

Bcl-XL [7] = biological target: T1, Bcl-XL (Homo sapiens, UniProt Q07817, DEL45-84); experiment: FP binding assay, Flu-Bak-BH3 16-mer tracer and His-fused Bcl-XL; conditions: FIG. 3, 6A, 6B
T1 construct: His-tag (N); made in house

[8] = Elimination half-life in humans; assay type: in vivo
From the text: In some embodiments, the present invention contemplates that the longer residency of the (+)-gossypol enantiomer is potentially beneficial in certain prolonged gossypol treatments methods. Therefore, in some embodiments, the (+)-gossypol enantiomer is potentially more toxic to cells. […]

Bcl-2 = biological target: T2, Bcl-2 (Homo sapiens, UniProt P10415); experiment: FP binding assay, Flu-Bad-25 peptide and GST-fusion Bcl-2 (FIG. 4, 45)
T2 construct: purchased Santa Cruz Biotechnology

Bcl-XL [9] = biological target: T1, Bcl-XL; experiment: 15N HSQC NMR binding to Bcl-XL
[10] = tested on: MCF-7 breast cancer cell line; experiment: Growth inhibition with TAXOL in fixed ratio, MCF-7; assay type: cell-based, human; conditions: combinations in a fixed ratio to TAXOL
Bcl-XL [11] = biological target: T1, Bcl-XL; experiment: FP binding assay, Flu-Bid 21-residue peptide and Bcl-XL (FIG. 5, 46)
[12] = Table 8, docetaxel 7.5 mg/kg i.v. q week for 3 weeks, alone

T1 sequence (Q07817 with tags, fused parts or gaps DEL45-84 limits assumed): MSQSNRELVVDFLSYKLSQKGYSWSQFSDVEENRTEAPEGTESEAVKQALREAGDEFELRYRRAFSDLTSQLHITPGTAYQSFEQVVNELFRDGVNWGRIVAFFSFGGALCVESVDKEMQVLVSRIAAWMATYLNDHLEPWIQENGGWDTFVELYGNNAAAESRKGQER
T2 sequence (P10415 1-205 limits assumed): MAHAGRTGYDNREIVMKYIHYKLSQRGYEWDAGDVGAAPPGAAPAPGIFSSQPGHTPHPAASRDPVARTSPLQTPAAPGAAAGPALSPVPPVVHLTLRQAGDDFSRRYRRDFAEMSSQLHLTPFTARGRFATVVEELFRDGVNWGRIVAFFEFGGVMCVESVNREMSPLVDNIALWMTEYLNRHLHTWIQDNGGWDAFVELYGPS

Cc1cc2c(C(C)C)c(O)c(O)c(C=O)c2c(O)c1-c1c(C)cc2c(C(C)C)c(O)c(O)c(C=O)c2c1O (racemic) [gossypol]
weight loss or death ([1]; Table 8, mice treated with gossypol): There was no weight loss or death in | pIC50 (MDA-MB-231 cells): 5.70 | weight loss [2]: There was no significant weight loss | inhibition of tumor growth ([3]; 30 mg/kg oral daily): more than 70% | inhibition of tumor growth ([3]; 90 mg/kg oral daily): more than 70% | weight loss or deaths ([3]; 30 and 90 mg/kg oral daily): No weight loss or deaths | tumor growth inhibition on day 42 ([4]; Table 9, PC-3 flank xenografts (~100 mm^3 at start), NCr-nu nude mouse, 15 mg/kg daily p.o., alone): (15.6% on day 42). The (−)-gossypol | weight loss ([4]; Table 9): There was no weight loss in mice | tumor growth inhibition on day 56 compared to vehicle controls ([4]; Table 10, PC-3 flank xenografts (~120 mm^3 at start), NCr-nu nude mouse, daily p.o. for 28 days, alone (racemic 15 mg/kg)): (39% on day 56, p = 0.145) compared | weight loss ([4]; Table 10): There was no weight loss in mice | weight loss [5]: There was no weight loss in mice | weight loss (PC-3 xenograft): There was no significant weight loss | cells induced to undergo apoptosis ([6]; 5.0 μM): 59% | cells induced to undergo apoptosis ([6]; 10.0 μM): 74% | cells induced to undergo apoptosis ([6]; 20.0 μM): 96%

CC1=C(C2=C(C)C(=O)c3c(c(C=O)c(O)c(O)c3C(C)C)C2=O)C(=O)c2c(C=O)c(O)c(O)c(C(C)C)c2C1=O (racemic) [gossypolone]
inhibition of binding between Bak BH3 peptide and Bcl-XL (Bcl-XL [7]): competitive inhibition of Bak BH3 peptide binding to Bcl-XL protein

Cc1cc2c(C(C)C)c(O)c(O)c(C=O)c2c(O)c1-c1c(C)cc2c(C(C)C)c(O)c(O)c(C=O)c2c1O [(+)-gossypol]
T1/2 of elimination relative to (−)-gossypol [8]: 29 times | inhibition of binding between Bid BH3 peptide and Bcl-2 (Bcl-2; FIG. 4): directly inhibit binding between Bid BH3 peptide and Bcl-2 | binding to Bcl-XL by NMR (Bcl-XL [9]): bind to the BH3 binding groove in Bcl-XL | pIC50 [10]: 4.64 | inhibition of binding between Bad BH3 peptide and Bcl-XL (Bcl-XL [11]): directly inhibit binding between Bad BH3 peptide and Bcl-XL

CCN=Cc1c(O)c(O)c(C(C)C)c2cc(C)c(-c3c(C)cc4c(C(C)C)c(O)c(O)c(C=NCC)c4c3O)c(O)c12 [(−)-gossypol ethyl Schiff's base]
inhibition of binding between Bak BH3 peptide and Bcl-XL (Bcl-XL [7]): time-dependent inhibition

CSCC[C@H](NC(=O)[C@H](CCCNC(=N)N)NC(=O)[C@H](CCCNC(=N)N)NC(=O)[C@H](CC(C)C)NC(=O)[C@H](CCC(=O)O)NC(=O)[C@H](CCCNC(=N)N)NC(=O)CNC(=O)[C@H](Cc1ccc(O)cc1)NC(=O)[C@H](CCCNC(=N)N)NC(=O)[C@H](CCC(N)=O)NC(=O)[C@H](C)NC(=O)[C@H](C)NC(=O)[C@H](Cc1c[nH]c2ccccc12)NC(=O)[C@H](CC(C)C)NC(=O)[C@H](CC(N)=O)NC(=O)c1ccc2c(c1)C1(OC2=O)c2ccc(O)cc2Oc2cc(O)ccc21)C(=O)N[C@@H](CO)C(=O)N[C@@H](CC(=O)O)C(=O)N[C@@H](CCC(=O)O)C(=O)N[C@@H](Cc1ccccc1)C(=O)N[C@H](C(=O)N[C@@H](CC(=O)O)C(=O)N[C@@H](CO)C(=O)N[C@@H](Cc1ccccc1)C(=O)N[C@@H](CCCCN)C(=O)N[C@@H](CCCCN)C(=O)O)C(C)C [Bad 25-mer BH3 peptide, reference compound]
pKd (Bcl-2; FIG. 26): 8.16

CC(=O)O[C@@]12CO[C@@H]1C[C@H](O)[C@@]1(C)C(=O)[C@H](O)C3=C(C)[C@@H](OC(=O)[C@H](O)[C@@H](NC(=O)OC(C)(C)C)c4ccccc4)C[C@@](O)([C@@H](OC(=O)c4ccccc4)[C@H]21)C3(C)C [Docetaxel, docetaxel, reference compound]
tumor growth inhibition [1, 12]: achieved about 70% tumor growth | tumors grew back, time after treatment stopped [1, 12]: back 2-3 weeks after treatment | tumor growth in second round of treatment ([1]; second round from day 45, tumors about 2,000 mm^3): continued to grow
